Assay [1] deals with T1, Steroid 17-alpha-hydroxylase/17,20 lyase (Rattus norvegicus, UniProt P11715).
T1 sequence (P11715 whole entry): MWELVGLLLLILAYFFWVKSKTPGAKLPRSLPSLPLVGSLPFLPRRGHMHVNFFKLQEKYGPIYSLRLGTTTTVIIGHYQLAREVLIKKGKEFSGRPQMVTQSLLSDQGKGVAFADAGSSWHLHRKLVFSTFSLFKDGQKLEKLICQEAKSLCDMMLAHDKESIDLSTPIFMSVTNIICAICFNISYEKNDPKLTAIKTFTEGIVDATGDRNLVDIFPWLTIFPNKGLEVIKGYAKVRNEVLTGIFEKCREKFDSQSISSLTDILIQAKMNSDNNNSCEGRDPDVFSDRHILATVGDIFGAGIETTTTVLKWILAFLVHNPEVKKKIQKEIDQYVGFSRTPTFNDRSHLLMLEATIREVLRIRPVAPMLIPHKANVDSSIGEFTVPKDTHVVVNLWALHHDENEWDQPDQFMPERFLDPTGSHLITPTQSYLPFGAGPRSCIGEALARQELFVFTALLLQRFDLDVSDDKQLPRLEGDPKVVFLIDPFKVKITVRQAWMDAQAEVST
Kind of assay: Inhibiton of Sprague-Dawley rat testicular microsomal suspension CYP17A1 C17, 20 lyase activity using [1,2-3H]-17alpha-hydroxyprogesterone as substrate incubated for 15 mins in presence of NADPH generating system. The class given is ADME, microsomes, Testis, Microsome.

The test system of another assay is Serum. Kind of assay: In vivo inhibition of testosterone in Sprague-Dawley rat assessed as serum testosterone level at 25 mg/kg, po measured after 5 hrs by radioimmuno assay relative to control. The format is functional.
The target of assay [2] is T1, Steroid 17-alpha-hydroxylase/17,20 lyase. Kind of assay: Inhibiton of Sprague-Dawley rat testicular microsomal suspension CYP17A1 C17, 20 lyase activity using radiolabelled 17alpha-hydroxyprogesterone as substrate preincubated for 5 mins followed by enzyme addition incubated for 30 mins in presence of NADPH generating system. The class given is ADME, microsomes, Testis, Microsome.

Assay [3] has the same target. Kind of assay: Inhibiton of Sprague-Dawley rat testicular microsomal suspension CYP17A1 17-alpha hydroxylase activity using radiolabelled progesterone as substrate preincubated for 5 mins followed by enzyme addition incubated for 15 mins in presence of NADPH generating system. The class given is ADME, microsomes, Testis, Microsome.
For assay [4], the target named is T2, Steroid 17-alpha-hydroxylase/17,20 lyase (Homo sapiens, UniProt P05093).
T2 sequence (P05093 whole entry): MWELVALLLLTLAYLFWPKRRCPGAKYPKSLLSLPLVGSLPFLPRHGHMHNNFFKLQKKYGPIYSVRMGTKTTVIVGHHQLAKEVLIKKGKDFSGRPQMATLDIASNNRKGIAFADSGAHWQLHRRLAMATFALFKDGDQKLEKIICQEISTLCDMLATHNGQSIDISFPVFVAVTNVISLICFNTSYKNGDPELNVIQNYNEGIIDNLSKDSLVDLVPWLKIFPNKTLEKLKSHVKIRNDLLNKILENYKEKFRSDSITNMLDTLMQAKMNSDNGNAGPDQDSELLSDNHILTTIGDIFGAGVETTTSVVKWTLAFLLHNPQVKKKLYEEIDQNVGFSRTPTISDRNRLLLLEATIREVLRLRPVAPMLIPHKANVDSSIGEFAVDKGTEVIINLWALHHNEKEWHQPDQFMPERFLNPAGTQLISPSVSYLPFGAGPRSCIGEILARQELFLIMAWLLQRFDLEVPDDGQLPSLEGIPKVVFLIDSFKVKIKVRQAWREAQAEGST
Kind of assay: Inhibition of human recombinant CYP17A1 C17,20-lyase activity expressed in Escherichia coli using [1,2-3H]-17alpha-hydroxypregnenolone as substrate incubated for 15 mins. The class given is ADME.

The target in assay [5] is T2, Steroid 17-alpha-hydroxylase/17,20 lyase. Kind of assay: Inhibition of human CYP17 C17,20-lyase activity. The format is ADME.
The target is the same in assay [6]. Kind of assay: Inhibition of human testicular microsomal C17, 20 lyase activity using 17alpha-[1,2,6,7-3H] hydroxyprogesterone. The format is microsomes, Testis, Microsome.
A further assay deals with Cytochrome P450 3A4 (Homo sapiens, UniProt P08684). Kind of assay: Inhibition of human recombinant CYP3A4. The class given is ADME.
The next assay has as its target Cytochrome P450 2D6 (Homo sapiens, UniProt P10635). Kind of assay: Inhibition of human recombinant CYP2D6. The class given is ADME.
For assay [7], the target named is T2, Steroid 17-alpha-hydroxylase/17,20 lyase. Kind of assay: Inhibiton of human CYP17A1 C17, 20 lyase activity expressed in Escherichia coli using [1,2-3H]-17alpha-hydroxyprogesterone as substrate incubated for 15 mins in presence of NADPH generating system. The format is ADME.
Assay [8] concerns the target T1, Steroid 17-alpha-hydroxylase/17,20 lyase. Kind of assay: Binding affinity to Sprague-Dawley rat testicular microsome CYP17A1 assessed as inhibition constant. The format is ADME, microsomes, Testis.
Assay [9] has the same target. Kind of assay: Inhibition of rat CYP17. The format is ADME.
For assay [10] the target is unchanged. Kind of assay: Inhibition of Spague-Dawley rat testicular microsome CYP17 using progesterone as substrate preincubated for 5 mins followed by enzyme addition measured after 20 mins in presence of NADPH. The class given is ADME, microsomes, Testis.
For assay [11] the target is unchanged. Kind of assay: Inhibition of rat testicular CYP17. The format is ADME, tissue-based, Testis.
Assay [12] deals with T2, Steroid 17-alpha-hydroxylase/17,20 lyase. Kind of assay: Inhibition of human testicular CYP17. The format is ADME, tissue-based, Testis.
Assay [13] has the same target. Kind of assay: Inhibition of human testis C17, 20 lyase activity using 17alpha-[1,2-3H] hydroxyprogesterone incubated for 30 mins in presence of NADPH generating system. The class given is tissue-based.
The target is the same in assay [14]. Kind of assay: Inhibition of human testicular microsome CYP17. The class given is ADME, microsomes, Testis.

Cytochrome P450 3A4, sequence (P08684 whole entry): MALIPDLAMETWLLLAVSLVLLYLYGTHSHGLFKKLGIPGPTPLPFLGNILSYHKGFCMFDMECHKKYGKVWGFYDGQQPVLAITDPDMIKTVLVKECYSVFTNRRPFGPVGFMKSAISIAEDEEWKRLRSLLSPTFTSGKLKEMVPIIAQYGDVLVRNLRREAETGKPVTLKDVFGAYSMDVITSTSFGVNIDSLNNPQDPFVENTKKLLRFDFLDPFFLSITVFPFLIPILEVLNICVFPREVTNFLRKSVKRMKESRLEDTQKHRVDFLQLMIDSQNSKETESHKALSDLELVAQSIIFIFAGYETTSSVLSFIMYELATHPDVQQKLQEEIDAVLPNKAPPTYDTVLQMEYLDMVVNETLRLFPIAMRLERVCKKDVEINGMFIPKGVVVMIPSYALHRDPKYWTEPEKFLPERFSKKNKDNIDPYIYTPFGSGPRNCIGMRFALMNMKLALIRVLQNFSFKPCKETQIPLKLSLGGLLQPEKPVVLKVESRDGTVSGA
Cytochrome P450 2D6, sequence (P10635 whole entry): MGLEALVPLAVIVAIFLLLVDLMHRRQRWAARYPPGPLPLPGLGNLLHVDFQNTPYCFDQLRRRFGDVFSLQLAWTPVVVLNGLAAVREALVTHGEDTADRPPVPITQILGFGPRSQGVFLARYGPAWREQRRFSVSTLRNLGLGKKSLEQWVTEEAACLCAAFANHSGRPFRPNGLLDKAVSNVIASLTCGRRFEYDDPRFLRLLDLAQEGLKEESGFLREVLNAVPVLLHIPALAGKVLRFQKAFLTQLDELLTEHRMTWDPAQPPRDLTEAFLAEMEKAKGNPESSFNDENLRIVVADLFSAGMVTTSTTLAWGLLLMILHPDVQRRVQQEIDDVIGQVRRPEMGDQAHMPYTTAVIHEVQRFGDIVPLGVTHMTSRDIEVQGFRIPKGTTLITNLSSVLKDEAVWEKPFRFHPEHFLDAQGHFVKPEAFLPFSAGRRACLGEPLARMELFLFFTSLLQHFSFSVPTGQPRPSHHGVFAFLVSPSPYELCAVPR

Regarding `C(=C/c1cccc(Cn2ccnc2)c1)/c1ccccc1`, in assay [1], the IC50 (usually the point on the concentration scale where inhibition reaches its midpoint) was 24 nM. Besides, the Ct in the assay on Serum is listed as 135%.
Consider `Brc1ccc(CCCCCn2ccnc2)cc1`, for which the 50% inhibitory concentration (IC50) was determined as 58 nM in [2] and 500 nM in assay [3].
For the compound `COc1ccc(-c2ccc([C@](O)(c3c[nH]cn3)C(C)C)cc2)cc1OC`, the concentration for half-maximal inhibition (IC50) in assay [4] was determined as 11 nM.
With `O=c1c(O)cc([C@H]2Oc3cc(O)cc(O)c3C[C@H]2O)cc2c([C@H]3Oc4cc(O)cc(O)c4C[C@H]3O)cc(O)c(O)c12` [THEAFLAVIN], half-maximal inhibition in [5] (IC50) required 25000 nM.
`Brc1cc(Br)c2oc(Cn3ccnc3)cc2c1`: the IC50 in [6] is 185 nM.
In the case of `c1cncc(Nc2ccc(-n3cnc4ccccc43)cc2)c1`, the IC50 on Cytochrome P450 3A4 and on Cytochrome P450 2D6 was > 10000 nM in each case.
For the compound `C(=C\c1cccc(-n2ccnc2)c1)/c1ccccc1`, in assay [1], the IC50 was determined as 230 nM.
For the compound `Cc1c(/C=C/[C@H](C)c2c[nH]cn2)sc2ccc(F)cc12`, the Ct with Serum is given as 2%. In assay [7], the IC50 was 21 nM.
`O=C1c2cc(Cl)ccc2CCC1c1cccnc1` (stereo not given): in assay [8], the inhibition constant (Ki) (as a rule, the dissociation constant of the complex between target and ligand, obtained from inhibition or displacement) worked out at 300 nM.
In [9], `COc1ccc2c(c1)CCC(Cc1c[nH]cn1)C2` (stereo not given) came in with a half-inhibitory concentration (IC50) of 1000 nM.
As for `COc1cccc2c1CCC(c1ccncc1)C2=O` (stereo not given), in assay [10], the IC50 was 13000 nM.
As for `CC(c1ccc(-c2ccc(F)cc2)cc1)n1ccnc1` (stereo not given), the half-maximal inhibitory concentration (IC50) in [11] amounted to 540 nM; in assay [12], 240 nM.
As for `CC1=C(c2cccnc2)Cc2cc(Cl)ccc21`, the inhibition constant Ki in [8] came to 40 nM.
`Clc1ccccc1C(c1cc2cc(Br)ccc2o1)n1ccnc1` (stereo not given): in [13], the IC50 amounted to 4 nM.
In assay [14], `c1ccc(-c2ccc(Cn3ccnc3)cc2)cc1` gave a concentration for half-maximal inhibition (IC50) of 1000 nM.

The values above are taken from ChEMBL document CHEMBL5338784, “Non-steroidal CYP17A1 Inhibitors: Discovery and Assessment” (J Med Chem, 2023).
